{
  "source": "paper PMC10959927",
  "about": "“Platinum iodido drugs show potential anti-tumor activity, affecting cancer cell metabolism and inducing ROS and senescence in gastrointestinal cancer cells” (Communications Biology, 2024)",
  "key": {"MKN45 cells": {"system": "MKN45 cells", "assay": "Cell viability, crystal violet staining", "details": "for Cell Viability without NAC: MKN45 cells, Fig. S6A; for IC50: read-out: IC50 concentration (± SD) at 48 h, 48 h", "description": "(§1) Cell viability was assessed using a crystal violet-based staining method. […] The cells (2 × 10^5) were seeded in 24-multiwell dishes in 0.5 mL of complete medium and incubated overnight. […] After 48 h, cells were fixed with 1% glutaraldehyde (20–30 min), washed with distilled water, and stained with 0.1% crystal violet. […] IC50 were calculated by using GraphPad Prism (version 8.0). Nonlinear regression was used to fit the data to the log (inhibitor) versus response (variable slope)."}, "AGS cells [1]": {"system": "AGS cells", "assay": "Cell viability, crystal violet staining", "details": "for Cell Viability without NAC: AGS cells, Fig. S6A; for IC50: read-out: IC50 concentration (± SD) at 48 h, 48 h", "description": "as §1"}, "PANC1 cells": {"system": "PANC1 cells", "assay": "Cell viability, crystal violet staining", "details": "for Cell Viability without NAC: PANC1 cells, Fig. S6A; for IC50: read-out: IC50 concentration (± SD) at 48 h, 48 h", "description": "as §1"}, "AGS cells [2]": {"system": "AGS cells", "assay": "SA-β-Gal histochemical staining", "format": "cell-based, human", "details": "Fig. S4A", "in_short": "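AGS, MKN45 or PANC1 cells (5×10^4) were seeded in 24-well plates overnight before treatment. For flow cytometry, cells were PFA-fixed and stained with CellEvent Senescence Green probe (1:500), read at ex 488/em 530/30 nm. For histochemistry, cells were treated 3 h, then kept 24 h in fresh medium before SA-β-Gal staining.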"}, "CC2509 fibroblasts": {"system": "CC2509 fibroblasts", "assay": "Cell viability, crystal violet staining, non-tumoral cells", "details": "CC2509, 48 h", "description": "as §1"}, "HPDE cells": {"system": "HPDE cells", "assay": "Cell viability, crystal violet staining, non-tumoral cells", "details": "for percentage of viable cells: 48 h", "description": "as §1"}, "AGS cells [3]": {"system": "AGS cells", "assay": "Western blotting (p-p53, p-JNK, p-p38, p-ERK, p-CHK1/2, Mcl1, BID, BAX)", "format": "cell-based, human", "description": "Total protein extracts were obtained by adding the lysis buffer: 25 mM HEPES pH 7.5, 0.3 M NaCl, 1.5 mM MgCl2, 0.2 mM EDTA, 0.5 mM DTT, 20 mM β-glicerophosphate, 0.1 mM Na3VO4, 0.1% triton X-100; in the presence of protease inhibitors. Twenty μg of protein per sample were loaded and resolved using 8%, 10% or 15% SDS-PAGE polyacrylamide gels, and then transferred onto PVDF membranes, followed by immunodetection using appropriate antibodies, purchased from Santa Cruz Technology: Mcl-1 (sc-819), Cell Signaling Technology: BIM, BID, BAX (#9942), p-p38 (1:2000, #4631), p-p53^ser15 (#9284), p-ERK1/2 (1:2000, #9106), p-CHK1^ser345 and p-CHK2^ser19 (#9931), Promega Corporation-Spain: p-JNK (#V7932), or Sigma-Aldrich: α-tubulin (1:10000, #TP026). Unless indicated, all antibodies were diluted 1:1000. Secondary antibodies conjugated with horseradish peroxidase were purchased from BioRad, and chemiluminescence detection was performed using ECL (Santa Cruz Biotechnology)."}, "[4]": {"details": "read-out: IC50 concentration (± SD) at 48 h in non-tumoral cell lines"}, "[5]": {"details": "Time 1 h, Fig. 4A, replicate values"}, "[6]": {"details": "Time 3 h, Fig. 4A, replicate values"}},
  "note": "“And” between values parts separate entries of the source, which are not always exact repeats. Equal entries are not always repeated. Where two headings read alike, the source gives them in different places.",
  "data": [
    {"smiles": "CC(C)[NH][Pt@SP3]([I])([I])[NH]C(C)C", "note": "[I5, trans-[PtI2(isopropylamine)2]]", "values": [
      {"measurement": "Cell Viability without NAC", "setting": "MKN45 cells; dose 10 µM", "result": "97.9702 and 91.0232 and 100.944"},
      {"measurement": "Cell Viability without NAC", "setting": "MKN45 cells; dose 25 µM", "result": "85.8879 and 70.3076 and 69.3928"},
      {"measurement": "Cell Viability without NAC", "setting": "MKN45 cells; dose 50 µM", "result": "44.0762 and 29.818 and 39.7772"},
      {"measurement": "Cell Viability without NAC", "setting": "MKN45 cells; dose 75 µM", "result": "32.4358 and 27.3279 and 29.4931"},
      {"measurement": "IC50", "setting": "MKN45 cells; MKN45, NAC (+) 0.5 mM", "result": "> 100", "unit": "µM"},
      {"measurement": "IC50", "setting": "MKN45 cells; MKN45, NAC (-)", "result": "30 µM and 28.7 µM"},
      {"measurement": "IC25 concentration", "setting": "AGS cells [1]; AGS", "result": 15, "unit": "µM"},
      {"measurement": "Cell Viability without NAC", "setting": "AGS cells [1]; dose 10 µM", "result": 104.459},
      {"measurement": "Cell Viability without NAC", "setting": "AGS cells [1]; dose 50 µM", "result": 35.6312},
      {"measurement": "Cell Viability without NAC", "setting": "AGS cells [1]; dose 75 µM", "result": 33.3189},
      {"measurement": "IC50", "setting": "AGS cells [1]; AGS, NAC (+) 0.5 mM", "result": "> 100", "unit": "µM"},
      {"measurement": "IC50", "setting": "AGS cells [1]; AGS, NAC (-)", "result": "40 µM and 38.2 µM"},
      {"measurement": "Cell Viability without NAC", "setting": "PANC1 cells; dose 10 µM", "result": "85.9915 and 83.1095 and 92.9481"},
      {"measurement": "Cell Viability without NAC", "setting": "PANC1 cells; dose 25 µM", "result": "34.4587 and 38.5831 and 38.2547"},
      {"measurement": "Cell Viability without NAC", "setting": "PANC1 cells; dose 50 µM", "result": "18.5972 and 30.025 and 31.7453"},
      {"measurement": "Cell Viability without NAC", "setting": "PANC1 cells; dose 75 µM", "result": "17.1129 and 21.5975 and 27.2406"},
      {"measurement": "IC50", "setting": "PANC1 cells; PANC1, NAC (+) 0.5 mM", "result": "> 100", "unit": "µM"},
      {"measurement": "IC50", "setting": "PANC1 cells; PANC1, NAC (-)", "result": "18 µM and 20 µM and 18.2 µM"},
      {"measurement": "Fold change % Senescence", "setting": "AGS cells [2]", "result": "58.06% and 57.14% and 43.1%"},
      {"measurement": "percentage of viable cells", "setting": "CC2509 fibroblasts; dose 2.5 µM", "result": "100.938% and 100.862% and 91.106%"},
      {"measurement": "percentage of viable cells", "setting": "CC2509 fibroblasts; dose 5 µM", "result": "83.0553% and 85.5747% and 89.9658%"},
      {"measurement": "percentage of viable cells", "setting": "CC2509 fibroblasts; dose 10 µM", "result": "93.9868% and 89.8276% and 94.7548%"},
      {"measurement": "percentage of viable cells", "setting": "CC2509 fibroblasts; dose 25 µM", "result": "85.5057% and 58.6494% and 84.1505%"},
      {"measurement": "percentage of viable cells", "setting": "CC2509 fibroblasts; dose 50 µM", "result": "74.4584% and 49.6552% and 58.3178%"},
      {"measurement": "percentage of viable cells", "setting": "CC2509 fibroblasts; dose 100 µM", "result": "38.4658% and 29.1313% and 33.9772%"},
      {"measurement": "IC50", "setting": "CC2509 fibroblasts; [4]", "result": "74.1 ± 5.42", "unit": "µM"},
      {"measurement": "percentage of viable cells", "setting": "HPDE cells; dose 2.5 µM", "result": "94.0083% and 103.787% and 91.0112%"},
      {"measurement": "percentage of viable cells", "setting": "HPDE cells; dose 5 µM", "result": "95.3512% and 98.9765% and 89.3059%"},
      {"measurement": "percentage of viable cells", "setting": "HPDE cells; dose 10 µM", "result": "88.9979% and 69.4985% and 69.7172%"},
      {"measurement": "percentage of viable cells", "setting": "HPDE cells; dose 25 µM", "result": "58.8843% and 42.8352% and 30.2314%"},
      {"measurement": "percentage of viable cells", "setting": "HPDE cells; dose 50 µM", "result": "20.4029% and 27.175% and 15.1157%"},
      {"measurement": "IC50", "setting": "HPDE cells; [4]", "result": "26 µM and 25 µM and 26.8 µM"},
      {"measurement": "activation of p53 (p-p53 western blot)", "setting": "AGS cells [3]; IC50, 1, 3, 6 and 24 h", "result": "did not activate p53"},
      {"measurement": "phosphorylation of CHK1/2 (DDR pathway, western blot)", "setting": "AGS cells [3]; IC50, 1, 3, 6 or 24 h", "result": "did not activate"},
      {"measurement": "fold change p-ERK vs Tubulin", "setting": "AGS cells [3]; [5]", "result": "3.337 fold change and 2.237 fold change and 6.03 fold change"},
      {"measurement": "fold change p-JNK vs Tubulin", "setting": "AGS cells [3]; [5]", "result": "3.178 fold change and 2.647 fold change and 2.394 fold change"},
      {"measurement": "fold change p-p38 vs Tubulin", "setting": "AGS cells [3]; [5]", "result": "1.6079 fold change and 2.911 fold change and 3.19 fold change"},
      {"measurement": "fold change p-p53 vs Tubulin", "setting": "AGS cells [3]; [5]", "result": "0.8674 fold change and 0.8424 fold change and 1.7105 fold change"},
      {"measurement": "fold change p-ERK vs Tubulin", "setting": "AGS cells [3]; [6]", "result": "6.263 fold change and 7.52 fold change and 5.909 fold change"},
      {"measurement": "fold change p-JNK vs Tubulin", "setting": "AGS cells [3]; [6]", "result": "3.912 fold change and 2.163 fold change and 1.799 fold change"},
      {"measurement": "fold change p-p38 vs Tubulin", "setting": "AGS cells [3]; [6]", "result": "0.8627 fold change and 3.016 fold change and 3.496 fold change"}
    ]}
  ]
}
